Experimental data published in article PMC13338763, “Harnessing albumin as a carrier for the delivery of anti-HIV drugs to the lymphatic system” (Acta biomaterialia, 2025).

How the values were obtained:
fibrinogen = molecular target: T1, fibrinogen (Homo sapiens, UniProt P02671+P02675+P02679); assay: Gel retardation study with fibrinogen; type: binding
T1 sequence (P02671 20-629 limits assumed): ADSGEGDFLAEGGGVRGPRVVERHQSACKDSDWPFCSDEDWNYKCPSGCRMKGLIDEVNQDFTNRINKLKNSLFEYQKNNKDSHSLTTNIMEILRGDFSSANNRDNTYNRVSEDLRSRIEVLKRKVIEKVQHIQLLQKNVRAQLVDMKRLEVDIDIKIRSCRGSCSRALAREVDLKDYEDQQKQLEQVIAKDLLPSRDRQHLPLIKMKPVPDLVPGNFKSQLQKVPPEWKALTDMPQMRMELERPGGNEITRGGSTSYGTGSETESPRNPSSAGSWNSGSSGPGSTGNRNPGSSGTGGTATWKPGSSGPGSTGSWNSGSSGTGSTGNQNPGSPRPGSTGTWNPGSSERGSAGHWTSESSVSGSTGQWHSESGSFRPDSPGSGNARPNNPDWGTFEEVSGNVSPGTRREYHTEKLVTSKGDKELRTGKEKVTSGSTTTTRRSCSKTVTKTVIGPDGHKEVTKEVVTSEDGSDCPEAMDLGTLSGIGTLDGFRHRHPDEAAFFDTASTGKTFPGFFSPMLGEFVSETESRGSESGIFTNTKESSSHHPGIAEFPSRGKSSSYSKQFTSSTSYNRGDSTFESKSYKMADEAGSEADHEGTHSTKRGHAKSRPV
T1 sequence (P02675 31-491): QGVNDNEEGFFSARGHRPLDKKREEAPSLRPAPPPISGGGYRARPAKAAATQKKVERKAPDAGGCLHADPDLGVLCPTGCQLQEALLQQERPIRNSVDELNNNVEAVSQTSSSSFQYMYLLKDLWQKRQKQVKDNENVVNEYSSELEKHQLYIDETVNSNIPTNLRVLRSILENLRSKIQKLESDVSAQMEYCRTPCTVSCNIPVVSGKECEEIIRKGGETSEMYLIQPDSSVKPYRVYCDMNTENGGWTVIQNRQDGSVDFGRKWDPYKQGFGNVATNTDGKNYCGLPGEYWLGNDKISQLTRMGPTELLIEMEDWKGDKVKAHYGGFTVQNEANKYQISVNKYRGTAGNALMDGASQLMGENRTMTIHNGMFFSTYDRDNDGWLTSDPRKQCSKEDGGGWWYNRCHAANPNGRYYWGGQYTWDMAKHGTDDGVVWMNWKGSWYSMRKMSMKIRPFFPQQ
T1 sequence (P02679 27-453): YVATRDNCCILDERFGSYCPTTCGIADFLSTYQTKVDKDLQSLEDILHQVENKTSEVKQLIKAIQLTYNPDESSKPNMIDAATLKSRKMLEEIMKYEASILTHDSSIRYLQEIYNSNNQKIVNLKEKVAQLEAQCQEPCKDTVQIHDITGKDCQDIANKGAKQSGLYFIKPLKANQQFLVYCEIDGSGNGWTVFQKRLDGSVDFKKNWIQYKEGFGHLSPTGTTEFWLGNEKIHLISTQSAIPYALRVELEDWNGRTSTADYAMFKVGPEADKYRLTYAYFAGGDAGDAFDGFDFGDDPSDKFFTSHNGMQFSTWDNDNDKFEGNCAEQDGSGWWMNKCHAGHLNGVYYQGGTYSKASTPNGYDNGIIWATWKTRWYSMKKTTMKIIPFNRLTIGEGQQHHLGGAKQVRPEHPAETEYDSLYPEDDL
Protocol: (§1) Twenty (20) μg EB, hEB, hEB-platin, or hEB-DTG were mixed with or without various amounts of BSA, globulin, fibrinogen or FBS in 200 μL saline water, then 40 μL of the mixed solution were loaded to 1.5 % agarose gel and run under 120 V for 30 min.

BSA = BSA (Bos taurus, UniProt P02769); assay: Gel retardation study with BSA; type: binding, bovine; settings: BSA, weight ratio
BSA, sequence (P02769 25-607): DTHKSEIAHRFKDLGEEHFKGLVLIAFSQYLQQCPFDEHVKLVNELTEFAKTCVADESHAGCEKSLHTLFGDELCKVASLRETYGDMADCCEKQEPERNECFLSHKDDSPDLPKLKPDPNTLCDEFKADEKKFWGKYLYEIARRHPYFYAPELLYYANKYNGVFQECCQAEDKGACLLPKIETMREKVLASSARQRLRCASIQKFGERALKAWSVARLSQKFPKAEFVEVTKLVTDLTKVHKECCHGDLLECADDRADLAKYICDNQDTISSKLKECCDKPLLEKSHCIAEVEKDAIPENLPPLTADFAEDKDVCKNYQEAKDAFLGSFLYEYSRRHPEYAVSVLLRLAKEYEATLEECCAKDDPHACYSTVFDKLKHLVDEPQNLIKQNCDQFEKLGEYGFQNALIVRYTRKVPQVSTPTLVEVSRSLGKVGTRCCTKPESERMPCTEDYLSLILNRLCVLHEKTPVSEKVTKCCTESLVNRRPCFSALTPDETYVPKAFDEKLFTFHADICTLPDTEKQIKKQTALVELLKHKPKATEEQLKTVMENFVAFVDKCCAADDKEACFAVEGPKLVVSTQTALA
Protocol: as §1

HUVEC monolayer = assay: Transwell study: transport across a HUVEC monolayer, flow cytometry of HEK293T cells in lower chamber; type: cell-based; settings: 8 h; for EB transport across a HUVEC monolayer: EB-positive cells in the lower chamber: Fig. 1J
Protocol: HEK293T were seeded to 6-well plates as lower chamber and HUVEC were seeded to Corning (NY, USA) 6-well plate inserts (0.4 μm pore size) in another plate as upper chamber, respectively. After incubation and the cell layer on the upper chamber became intact, the culture medium in the inserts was replaced by fresh medium containing 0, 5 or 20 μg/mL filipin and 0 or 10 μg/mL LPS for overnight incubation. Next, the culture medium in the inserts was replaced with fresh medium containing 10 μM EB, hEB or hEB-DTG and 2 mg/mL BSA, then the inserts were moved to the wells cultured with HEK293T cells for incubation of 8 h at 37 °C. After that, HEK293T cells in the lower chambers were washed with cold PBS.
EB signals in HEK293T cells were quantified by flow cytometry. Fluorescence was examined at an excitation wavelength of 532 nm and an emission wavelength of 660 nm. 10 × 10^4 events were collected for each sample.

[1] = Distribution in LN tissue and cells in LNs after i.v. injection (fluorescence microscopy, flow cytometry); type: in vivo
Protocol: Five (5) μM/kg EB, hEB or hEB-DTG were i.v. injected into mice pretreated intraperitoneally with or without 2.5 mg/kg LPS for 24 h. After 24 h, LNs from different sites were collected and their signals of EB were checked under fluorescent microscopy. To evaluate the EB signals in various types of cells, LNs were disrupted mechanically using scissors, digested with a mixture of deoxyribonuclease I (0.3 mg/mL, Sigma-Aldrich) and TL Liberase (0.25 mg/mL, Roche, IN, USA) in serum-free RPMI-1640 at 37 °C for 30 min, and dispersed through a 40 μm cell strainer (BD Biosciences, CA, USA). After red blood cell lysis, live/dead cell discrimination was performed using a Zombie NIR Fixable Viability Kit (BioLegend, CA, USA, dilution: 1/1000) at 4 °C for 30 min in DPBS. Surface staining was performed at 4 °C for 30 min in FACS staining buffer (1 × phosphate-buffered saline/5 % FBS/0.5 % sodium azide) containing designated antibody cocktails (PerCP anti-mouse CD45 antibody, Brilliant Violet 785 anti-mouse CD4 antibody, FITC anti-mouse CD8 antibody, APC anti-mouse CD11b antibody, APC/Cyanine7 anti-mouse F4/80 antibody, Pacific Blue anti-mouse CD19 antibody and AF647 anti-mouse CD27 antibody; dilution: 1/200 for all antibodies). Flow cytometry was performed with LSRII (BD Biosciences) and Aurora (Cytek Biosciences, CA, USA) instruments and analyzed by FlowJo (BD Biosciences). The EB signals in each type of cell were quantified as mentioned above.

HEK293T cells = assay: Cellular uptake study in vitro (flow cytometry); type: cell-based; settings: in words
Protocol: HEK293T or HUVEC cells were seeded to 6-well plates. After overnight incubation, the culture medium was replaced by fresh medium containing 10 μM EB and 2, 5, or 20 mg/mL BSA for incubation of 0.5, 1 or 3 h at 37 °C. Later, cells were washed with cold PBS and fixed with PBS containing 4 % (w/v) formaldehyde.
Cellular uptake of different treatments was quantified by flow cytometry. Fluorescence was examined at an excitation wavelength of 532 nm and an emission wavelength of 660 nm. 10 × 10^4 events were collected for each sample.

albumin = test system: albumin; set-up: method as in PMID 27682195; settings: cited from earlier work
globulin = assay: Gel retardation study with globulin; type: binding
Protocol: as §1

With `Cc1cc(-c2ccc(/N=N/c3ccc4c(S(=O)(=O)O)cc(S(=O)(=O)O)c(N)c4c3O)c(C)c2)ccc1/N=N/c1ccc2c(S(=O)(=O)O)cc(S(=O)(=O)O)c(N)c2c1O` [EB, Evans Blue] the binding to fibrinogen (fibrinogen) was “no detectable binding”, the “albumin/EB weight ratio at which the majority of EB molecules were bound to albumin” value (BSA) was no less than 25 and the “EB transport across a HUVEC monolayer: EB-positive cells in the lower chamber” value (HUVEC monolayer; CT (no pretreatment)) was 98.8%. For the same compound, the “EB transport across a HUVEC monolayer: EB-positive cells in the lower chamber” value (HUVEC monolayer; HUVEC pretreated with LPS + filipin) was 9.66%, the “EB transport across a HUVEC monolayer: EB-positive cells in the lower chamber” value (HUVEC monolayer; HUVEC pretreated with LPS) was 98.7% and the “EB transport across a HUVEC monolayer: EB-positive cells in the lower chamber” value (HUVEC monolayer; HUVEC pretreated with filipin) was 5.04%. For the same compound, the “transport across endothelial cell monolayer” value (HUVEC monolayer; albumin-bound, in words) was “strong fluorescent signals were detected in the lower chamber”, the “fluorescence signal in LNs” value ([1]; 24 h post i.v. injection, in words) was “Robust EB fluorescence was detected in all LNs examined” and the “EB signals in LNs of LPS-treated vs naive mice” value ([1]; 24 h post-injection, LPS 2.5 mg/kg i.p.) was “not significantly different”. For the same compound, the “uptake by immune cell populations in LNs” value ([1]; flow cytometry, in words) was “significant EB signal across multiple cell populations”, the cellular uptake (HEK293T cells) was “efficient and albumin-dependent” and the “EB molecules bound per albumin molecule” value (albumin) was “up to 14”. The binding to globulin (globulin) was “no detectable binding”.
